Measurements taken from ChEMBL document CHEMBL4138299, “Discovery of 3,3'-Spiro[Azetidine]-2-oxo-indoline Derivatives as Fusion Inhibitors for Treatment of RSV Infection” (ACS Med Chem Lett, 2018).

Experiments:
[1] = Cytotoxicity against human Hep2 cells after 5 days by CCK8 assay; conditions: HEp-2 cells
[2] = Clearance in Balb/c mouse at 1 mg/kg, iv administered as single bolus dose by LC-MS/MS analysis; conditions: in vivo
in vivo [3] = conditions: Balb/c, mouse, po, 10 mg/kg
Description: Cmax in Balb/c mouse at 10 mg/kg, po administered as single dose via gavage by LC-MS/MS analysis

Human orthopneumovirus [4] = assay: (§1) Antiviral activity against human respiratory syncytial virus A2 infected in Balb/c mouse assessed as reduction in lung viral load at 15 mg/kg, po administered once daily pretreated for 1 hr on day 0 followed by viral infection and subsequent compound dosing for 3 days measured after 1 day post last dose by plaque assay; format: functional
[5] = Half life in Balb/c mouse at 1 mg/kg, iv administered as single bolus dose by LC-MS/MS analysis; conditions: in vivo
Human orthopneumovirus [6] = assay: as §1, with “50” for “15”; format: functional
in vivo [7] = conditions: Balb/c, mouse, po, 10 mg/kg; remark: listed apart in the source
Description: AUC (0 to infinity) in Balb/c mouse at 10 mg/kg, po administered as single dose via gavage by LC-MS/MS analysis

[8] = Volume of distribution in Balb/c mouse at 1 mg/kg, iv administered as single bolus dose by LC-MS/MS analysis; conditions: in vivo
Human orthopneumovirus [9] = assay: as §1, with “infected in po dosed Balb/c mouse” for “infected in Balb/c mouse”, “viral load administered once” for “viral load at 15 mg/kg, po administered once”; format: functional, organism-based
Human orthopneumovirus [10] = assay: as §1, with “5” for “15”; format: functional
in vivo [11] = conditions: Balb/c, mouse, po, 10 mg/kg; remark: listed apart in the source
Description: Tmax in Balb/c mouse at 10 mg/kg, po administered as single dose via gavage by LC-MS/MS analysis

in vivo [12] = conditions: Balb/c, mouse, iv, 1 mg/kg
Description: AUC (0 to infinity) in Balb/c mouse at 1 mg/kg, iv administered as single bolus dose by LC-MS/MS analysis

in vivo [13] = conditions: Balb/c, mouse, po, 10 mg/kg; remark: listed apart in the source
Description: Oral bioavailability in Balb/c mouse at 10 mg/kg administered as single dose via gavage by LC-MS/MS analysis

Row | SMILES | CC50 at 120 h [1] | other results
1 | O=C1N(Cc2nc3cc(F)ccc3n2CCCCO)c2ccccc2C12CC2 | > 100 µM | 
2 | Cc1nc(=O)n(Cc2nc3ccccc3n2CCCCO)c2ccccc12 | > 100 µM | 
3 | OCCCCn1c(Cn2c(C(F)(F)F)nc3ccccc32)nc2ccccc21 | > 100 µM | 
4 | Cc1nn(Cc2nc3ccccc3n2CCCCO)c2ccccc12 | > 100 µM | 
5 | CN1CCOC2(C1)C(=O)N(Cc1nc3cc(Br)ccc3n1CCCCO)c1ccccc12 (stereo unspecified) | > 100 µM | 
6 | N#Cc1cn(Cc2nc3ccccc3n2CCCCO)c2ccccc12 | > 100 µM | 
7 | CC(C)OC(=O)N1CCC2(C1)C(=O)N(Cc1nc3cc(Br)ccc3n1CCCCO)c1ccccc12 (stereo unspecified) | > 100 µM | 
8 | CC1CC(=O)N(Cc2nc3ccccc3n2CCCCO)c2ccccc2N1 (stereo unspecified) | > 100 µM | 
9 | O=C1N(Cc2nc3cc(Br)ccc3n2CCCCO)c2ccccc2C12CCOCC2 | > 100 µM | 
10 | CC1(C)C(=O)N(Cc2nc3ccccc3n2CCCCO)c2ccccc21 | > 100 µM | 
11 | O=C1N(Cc2nc3cc(Br)ccc3n2CCCCO)c2ccccc2C12CCN(C1COC1)CC2 | > 100 µM | 
12 | O=C1N(Cc2nc3cc(Cl)ccc3n2CCCCO)c2ccccc2C12CC2 | > 100 µM | 
13 | CN1CC2(C1)C(=O)N(Cc1nc3cc(Br)ccc3n1CCCCO)c1ccccc12 | > 100 µM | 
14 | OCCCCn1c(Cn2c3c(c4ccccc42)CCNC3)nc2ccccc21 | > 100 µM | 
15 | O=C1N(Cc2nc3ccccc3n2CCCCO)c2cnccc2C12CC2 | > 100 µM | 
16 | OCCCCn1c(Cn2ccc3ccncc32)nc2ccccc21 | > 100 µM | 
17 | Cc1c2c(nn1Cc1nc3ccccc3n1CCCCO)CCCC2 | > 100 µM | 
18 | OCCCCn1c(Cn2ncc3ccccc32)nc2ccccc21 | > 100 µM | 
19 | Cc1ccc2c(c1)nc(CN1C(=O)C3(CC3)c3ccccc31)n2CCCCO | > 100 µM | 
20 | O=C1N(Cc2nc3ccccc3n2CCCCO)CN(c2ccccc2)C12CCNCC2 | > 100 µM | 
21 | O=C1N(Cc2nc3cc(Br)ccc3n2CCCCO)c2ccccc2C12CSC2 | > 100 µM | 
22 | O=C1N(Cc2nc3cc(Br)ccc3n2CCCCO)c2ccccc2C12CCOC2 (stereo unspecified) | > 100 µM | 

Row | SMILES | CC50 at 120 h [1] | other results
23 | O=C1N(Cc2nc3ccccc3n2CCCCO)c2cc(F)ccc2C12CC2 | > 100 µM | 
24 | OCCCCn1c(Cn2c(-c3cscn3)nc3ccccc32)nc2ccccc21 | > 100 µM | 
25 | O=C1N(Cc2nc3cc(Br)ccc3n2CCCCO)c2ccccc2C12CC2 | > 100 µM | 
26 | N#Cc1ccc2c(c1)nc(CN1C(=O)C3(CC3)c3ccccc31)n2CCCCO | > 100 µM | 
27 | CS(=O)(=O)N1CCC2(C1)C(=O)N(Cc1nc3cc(Br)ccc3n1CCCCO)c1ccccc12 (stereo unspecified) | > 100 µM | 
28 | O=C1N(Cc2nc3cc(C4CCCCC4)ccc3n2CCCCO)c2ccccc2C12CC2 | > 100 µM | 
29 | O=c1oc2ccccc2n1Cc1nc2ccccc2n1CCCCO | > 100 µM | 
30 | O=C1N(Cc2nc3cc(C(F)(F)F)ccc3n2CCCCO)c2ccccc2C12CC2 | > 100 µM | 
31 | O=C1N(Cc2nc3cc(I)ccc3n2CCCCO)c2ccccc2C12CC2 | > 100 µM | 
32 | Cc1cc(=O)n(Cc2nc3ccccc3n2CCCCO)c2ccccc12 | > 100 µM | 
33 | CC(C)C(=O)N1CC2(C1)C(=O)N(Cc1nc3cc(Br)ccc3n1CCCCO)c1ccccc12 | > 100 µM | 
34 | NCc1ccc2c(c1)nc(CN1C(=O)C3(CC3)c3ccccc31)n2CCCCO | > 100 µM | 
35 | Cc1nn(Cc2nc3ccccc3n2CCCCO)c2c1CCCC2 | > 100 µM | 
36 | O=C1NC(=O)C2(N1)C(=O)N(Cc1nc3cc(Br)ccc3n1CCCCO)c1ccccc12 (stereo unspecified) | > 100 µM | 
37 | CS(=O)(=O)N1CC2(C1)C(=O)N(Cc1nc3cc(Br)ccc3n1CCCCO)c1ccccc12 | > 100 µM | 
38 | O=C1N(Cc2nc3cc(Br)ccc3n2CCCCO)c2ccccc2C12CS(=O)(=O)C2 | > 100 µM | 
39 | CN1CCC2(CC1)C(=O)N(Cc1nc3cc(Br)ccc3n1CCCCO)c1ccccc12 | > 100 µM | 
40 | OCCCCn1c(Cn2ncc3ccncc32)nc2ccccc21 | > 100 µM | 
41 | O=C1N(Cc2nc3cc(Br)ccc3n2CCCCO)c2ccccc2C12CNC2 | > 100 µM | 
42 | CC(C)C(=O)N1CCC2(C1)C(=O)N(Cc1nc3cc(Br)ccc3n1CCCCO)c1ccccc12 (stereo unspecified) | > 100 µM | 
43 | O=C1N(Cc2nc3ccccc3n2CCCCO)c2ccccc2C12CC2 | > 100 µM | 
44 | CC(C)OC(=O)N1CC2(C1)C(=O)N(Cc1nc3cc(Br)ccc3n1CCCCO)c1ccccc12 | > 100 µM | clearance [2]: 28 mL/min/kg; Cmax (in vivo [3]): 3.32 µM; log(activity) (Human orthopneumovirus [4]): 2.05; half-life [5]: 84 min; log(activity) (Human orthopneumovirus [6]): 3.91; AUC(0-inf) (in vivo [7]): 8.08 µM·h; Vd [8]: 1.6 L/kg; Activity (Human orthopneumovirus [9]): Dose-dependent effect; log(activity) (Human orthopneumovirus [10]): 1.64; Tmax (in vivo [11]): 15 min; AUC(0-inf) (in vivo [12]): 1.13 µM·h; bioavailability (in vivo [13]): 71%
